Tests used:
PI3-Kα = PI3-Kα (Mus musculus (Mouse), UniProt P42337); assay: PI3-Kα biochemical assay (in vitro kinase assay, fluorescence polarization); conditions: Ki calculated from IC50, [ATP]=30 uM, Km=25 uM;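 further: Insect-cell-expressed mouse p110/p85 complex converting PI(4,5)P2, product PI(3,4,5)P3 detected by displacing TAMRA-tagged PI(3,4,5)P3 from Grip1 PH domain, lower polarization means more product, room temperature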
mTOR = mTOR (Homo sapiens (Human), UniProt P42345)
[1] = test system: PI3-K (phosphorylation of AKT at serine 473) in BT20 cells; assay: PI3-Kα cellular assay (phospho-AKT Ser473 ELISA in BT20 cells); conditions: Homo sapiens, BT-20, 1 h, read-out: S473 pAKT 10% FBS IC50 (μM);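 further: lysates read by ELISA with TMB colour at 450 nm, cells given 0.5% DMSO vehicle serve as positive control and cell-free wells as negative control, duplicate wells per concentration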

Sequence of mTOR (P42345 2156-2469): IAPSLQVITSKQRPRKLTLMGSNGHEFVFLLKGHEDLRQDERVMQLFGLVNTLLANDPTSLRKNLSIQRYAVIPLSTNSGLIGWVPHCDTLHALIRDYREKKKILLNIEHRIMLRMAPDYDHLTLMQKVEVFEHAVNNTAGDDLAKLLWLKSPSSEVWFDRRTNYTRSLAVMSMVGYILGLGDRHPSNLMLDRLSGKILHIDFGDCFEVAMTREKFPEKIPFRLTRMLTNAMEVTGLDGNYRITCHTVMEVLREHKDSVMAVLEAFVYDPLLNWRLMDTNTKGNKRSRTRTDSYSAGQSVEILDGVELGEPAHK
Sequence of PI3-Kα (P42337 whole entry, the tested form may be a part): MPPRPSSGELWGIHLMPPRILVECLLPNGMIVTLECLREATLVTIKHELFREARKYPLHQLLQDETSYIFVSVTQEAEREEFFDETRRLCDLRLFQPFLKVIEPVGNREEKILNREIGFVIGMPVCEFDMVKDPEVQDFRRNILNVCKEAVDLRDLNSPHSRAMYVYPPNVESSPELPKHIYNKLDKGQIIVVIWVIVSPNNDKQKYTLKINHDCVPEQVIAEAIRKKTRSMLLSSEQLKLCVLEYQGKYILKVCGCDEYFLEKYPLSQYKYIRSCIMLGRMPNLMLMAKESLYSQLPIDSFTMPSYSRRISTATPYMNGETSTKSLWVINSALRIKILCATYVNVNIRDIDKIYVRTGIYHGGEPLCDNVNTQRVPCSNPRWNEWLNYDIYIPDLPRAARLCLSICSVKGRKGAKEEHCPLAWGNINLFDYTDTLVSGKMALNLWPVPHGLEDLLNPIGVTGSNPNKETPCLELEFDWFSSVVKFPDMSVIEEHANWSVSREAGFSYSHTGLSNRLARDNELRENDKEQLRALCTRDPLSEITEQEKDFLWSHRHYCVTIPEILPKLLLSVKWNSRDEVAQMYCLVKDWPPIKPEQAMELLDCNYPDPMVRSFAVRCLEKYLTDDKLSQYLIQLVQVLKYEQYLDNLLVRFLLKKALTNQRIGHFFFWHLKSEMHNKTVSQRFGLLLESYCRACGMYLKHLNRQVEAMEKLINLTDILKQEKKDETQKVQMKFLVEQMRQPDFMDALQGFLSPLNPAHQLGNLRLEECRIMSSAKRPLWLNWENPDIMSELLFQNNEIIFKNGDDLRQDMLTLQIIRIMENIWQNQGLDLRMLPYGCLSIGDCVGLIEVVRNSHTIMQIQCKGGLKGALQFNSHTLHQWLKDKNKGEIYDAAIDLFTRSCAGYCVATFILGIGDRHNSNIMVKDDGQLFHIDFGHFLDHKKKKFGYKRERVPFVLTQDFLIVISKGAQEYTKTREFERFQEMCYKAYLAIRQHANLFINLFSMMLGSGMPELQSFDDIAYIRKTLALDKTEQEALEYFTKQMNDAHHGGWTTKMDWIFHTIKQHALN
Sequence of PI3-Kα (P26450 whole entry partner, the tested form may be a part): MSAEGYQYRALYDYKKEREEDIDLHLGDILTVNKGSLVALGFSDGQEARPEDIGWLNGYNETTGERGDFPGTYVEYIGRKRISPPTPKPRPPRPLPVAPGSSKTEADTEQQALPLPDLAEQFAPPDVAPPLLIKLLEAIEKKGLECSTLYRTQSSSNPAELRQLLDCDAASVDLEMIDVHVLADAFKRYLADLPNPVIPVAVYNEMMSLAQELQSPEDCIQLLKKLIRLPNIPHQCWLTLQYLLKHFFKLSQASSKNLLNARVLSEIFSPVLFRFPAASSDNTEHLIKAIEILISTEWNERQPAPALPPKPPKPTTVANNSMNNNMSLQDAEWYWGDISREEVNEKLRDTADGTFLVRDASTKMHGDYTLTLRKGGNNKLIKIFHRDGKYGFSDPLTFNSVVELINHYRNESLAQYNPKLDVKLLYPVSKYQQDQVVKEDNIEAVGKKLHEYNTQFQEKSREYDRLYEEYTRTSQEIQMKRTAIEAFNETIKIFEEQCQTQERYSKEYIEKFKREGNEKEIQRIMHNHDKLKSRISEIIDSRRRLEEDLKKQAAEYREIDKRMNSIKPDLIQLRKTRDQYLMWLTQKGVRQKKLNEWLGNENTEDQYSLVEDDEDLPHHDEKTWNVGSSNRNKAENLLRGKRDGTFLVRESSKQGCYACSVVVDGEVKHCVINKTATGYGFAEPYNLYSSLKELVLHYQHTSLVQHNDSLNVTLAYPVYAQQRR

SMILES | PI3Ka Ki (PI3-Kα) [nM] | Ki (mTOR) [nM] | IC50 [1] [µM]
COc1ncc(-c2ccc3ncc4c(c3n2)n(C2CCN(C(=O)CN)CC2)c(=O)n4C)cn1 [Compound 184, 1-(1-glycylpiperidin-4-yl)-8-(2-methoxypyrimidin-5-yl)-3-methyl-1,3-dihydro-2H-imidazo[4,5-c][1,5]naphthyridin-2-one] | 3.93 | 13.3 | 0.184
COc1ncc(-c2ccc3ncc4c(c3n2)n(C2CCN(CCO)CC2)c(=O)n4C)cn1 [Compound 185, 1-[1-(2-hydroxyethyl)piperidin-4-yl]-8-(2-methoxypyrimidin-5-yl)-3-methyl-1,3-dihydro-2H-imidazo[4,5-c][1,5]naphthyridin-2-one] | 11.9 | 25.2 | 0.124
COc1ncc(-c2ccc3ncc4c(c3n2)n(C2CCN(C(C)=O)CC2)c(=O)n4C)cn1 [Compound 187, 1-(1-acetylpiperidin-4-yl)-8-(2-methoxypyrimidin-5-yl)-3-methyl-1,3-dihydro-2H-imidazo[4,5-c][1,5]naphthyridin-2-one] | 3.87 | 3.74 | 0.0346
COc1ncc(-c2ccc3ncc4c(c3n2)n(C2CCNCC2)c(=O)n4C)cn1 [Compound 188, 8-(2-methoxypyrimidin-5-yl)-3-methyl-1-piperidin-4-yl-1,3-dihydro-2H-imidazo[4,5-c][1,5]naphthyridin-2-one] | 8.15 | 50.4 | 0.333
CN(C)c1ccc(-c2ccc3ncc4c(c3n2)n(C2CCNCC2)c(=O)n4C)cn1 [Compound 191, 8-[6-(dimethylamino)pyridin-3-yl]-3-methyl-1-piperidin-4-yl-1,3-dihydro-2H-imidazo[4,5-c][1,5]naphthyridin-2-one] | 0.5 | 8.41 | 0.0246
N[C@H]1CC[C@H](n2c(=O)[nH]c3cnc4ccc(-c5cnc6ccccc6c5)nc4c32)CC1 [Compound 192, 1-(trans-4-aminocyclohexyl)-8-quinolin-3-yl-1,3-dihydro-2H-imidazo[4,5-c][1,5]naphthyridin-2-one] | 2.21 | 3.33 | 0.402
CC(=O)N1CCC(n2c(=O)n(C)c3cnc4ccc(-c5ccc(N(C)C)nc5)nc4c32)CC1 [Compound 195, 1-(1-acetylpiperidin-4-yl)-8-[6-(dimethylamino)pyridin-3-yl]-3-methyl-1,3-dihydro-2H-imidazo[4,5-c][1,5]naphthyridin-2-one] | 0.391 | 1.72 | 0.0172
CNC(=O)N1CCC(n2c(=O)n(C)c3cnc4ccc(-c5ccc(N(C)C)nc5)nc4c32)CC1 [Compound 196, 4-{8-[6-(dimethylamino)pyridin-3-yl]-3-methyl-2-oxo-2,3-dihydro-1H-imidazo[4,5-c][1,5]naphthyridin-1-yl}-N-methylpiperidine-1-carboxamide] | 0.76 | 3.01 | 0.0243
CN(C)c1ccc(-c2ccc3ncc4c(c3n2)n(C2CCN(C(N)=O)CC2)c(=O)n4C)cn1 [Compound 197, 4-{8-[6-(dimethylamino)pyridin-3-yl]-3-methyl-2-oxo-2,3-dihydro-1H-imidazo[4,5-c][1,5]naphthyridin-1-yl}piperidine-1-carboxamide] | 1.05 | 0.444 | 0.0358
CN(C)c1ccc(-c2ccc3ncc4c(c3n2)n(C2CCN(CCO)CC2)c(=O)n4C)cn1 [Compound 198, 8-[6-(dimethylamino)pyridin-3-yl]-1-[1-(2-hydroxyethyl)piperidin-4-yl]-3-methyl-1,3-dihydro-2H-imidazo[4,5-c][1,5]naphthyridin-2-one] | 3.13 | 3.52 | 0.0325
Cn1c(=O)n(C2CCOCC2)c2c3nc(-c4cn[nH]c4)ccc3ncc21 [Compound 199, 3-methyl-8-(1H-pyrazol-4-yl)-1-(tetrahydro-2H-pyran-4-yl)-1,3-dihydro-2H-imidazo[4,5-c][1,5]naphthyridin-2-one] | 11.3 | 1.03 | 0.0183
Cc1ccc(-c2ccc3ncc4c(c3n2)n(C2CCOCC2)c(=O)n4C)cn1 [Compound 200, 3-methyl-8-(6-methylpyridin-3-yl)-1-(tetrahydro-2H-pyran-4-yl)-1,3-dihydro-2H-imidazo[4,5-c][1,5]naphthyridin-2-one] | 1.11 | 1.72 | 0.0273
COc1ncc(-c2ccc3ncc4c(c3n2)n(C2CCOCC2)c(=O)n4C)cn1 [Compound 201, 8-(2-methoxypyrimidin-5-yl)-3-methyl-1-(tetrahydro-2H-pyran-4-yl)-1,3-dihydro-2H-imidazo[4,5-c][1,5]naphthyridin-2-one] | 8.96 | 6.42 | 0.0989
Cn1cc(-c2ccc3ncc4c(c3n2)n(C2CCOCC2)c(=O)n4C)cn1 [Compound 203, 3-methyl-8-(1-methyl-1H-pyrazol-4-yl)-1-(tetrahydro-2H-pyran-4-yl)-1,3-dihydro-2H-imidazo[4,5-c][1,5]naphthyridin-2-one] | 5.17 | 72.3 | 0.0718
CN(C)c1ccc(-c2ccc3ncc4c(c3n2)n(C2CCOCC2)c(=O)n4C)cn1 [Compound 204, 8-[6-(dimethylamino)pyridin-3-yl]-3-methyl-1-(tetrahydro-2H-pyran-4-yl)-1,3-dihydro-2H-imidazo[4,5-c][1,5]naphthyridin-2-one] | 0.298 | 12.7 | 0.029
CN(C)c1ccc(-c2ccc3ncc4c(c3n2)n(C2CCN(C(=O)C(C)(C)C)CC2)c(=O)n4C)cn1 [Compound 205, 8-[6-(dimethylamino)pyridin-3-yl]-1-[1-(2,2-dimethylpropanoyl)piperidin-4-yl]-3-methyl-1,3-dihydro-2H-imidazo[4,5-c][1,5]naphthyridin-2-one] | 0.281 | 4.38 | 0.0214
COCCN1CCC(n2c(=O)n(C)c3cnc4ccc(-c5ccc(N(C)C)nc5)nc4c32)CC1 [Compound 206, 8-[6-(dimethylamino)pyridin-3-yl]-1-[1-(2-methoxyethyl)piperidin-4-yl]-3-methyl-1,3-dihydro-2H-imidazo[4,5-c][1,5]naphthyridin-2-one] | 0.802 | 8.09 | 0.0318
Cn1c(=O)n(C2CCOCC2)c2c3nc(-c4cnn(CCO)c4)ccc3ncc21 [Compound 208, 8-[1-(2-hydroxyethyl)-1H-pyrazol-4-yl]-3-methyl-1-(tetrahydro-2H-pyran-4-yl)-1,3-dihydro-2H-imidazo[4,5-c][1,5]naphthyridin-2-one] | 24.4 | 44.2 | 0.579
Cn1cc(-c2ccc3ncc4c(c3n2)n(C2CCN(CC(N)=O)CC2)c(=O)n4C)cn1 [Compound 211, 2-{4-[3-methyl-8-(1-methyl-1H-pyrazol-4-yl)-2-oxo-2,3-dihydro-1H-imidazo[4,5-c][1,5]naphthyridin-1-yl]piperidin-1-yl}acetamide] | 4.63 | 7.55 | 0.232
CC(=O)N1CCC(n2c(=O)n(C)c3cnc4ccc(-c5cnn(C)c5)nc4c32)CC1 [Compound 213, 1-(1-acetylpiperidin-4-yl)-3-methyl-8-(1-methyl-1H-pyrazol-4-yl)-1,3-dihydro-2H-imidazo[4,5-c][1,5]naphthyridin-2-one] | 4.09 | 7.81 | 0.133
C[C@@H](O)C(=O)N1CCC(n2c(=O)n(C)c3cnc4ccc(-c5ccc(N(C)C)nc5)nc4c32)CC1 [Compound 214, 8-[6-(dimethylamino)pyridin-3-yl]-1-{1-[(2R)-2-hydroxypropanoyl]piperidin-4-yl}-3-methyl-1,3-dihydro-2H-imidazo[4,5-c][1,5]naphthyridin-2-one] | 0.397 | 1.74 | 0.00553
Cn1cc(-c2ccc3ncc4c(c3n2)n(C2CCN(C(=O)C(C)(C)O)CC2)c(=O)n4C)cn1 [Compound 215, 1-[1-(2-hydroxy-2-methylpropanoyl)piperidin-4-yl]-3-methyl-8-(1-methyl-1H-pyrazol-4-yl)-1,3-dihydro-2H-imidazo[4,5-c][1,5]naphthyridin-2-one] | 4.67 | 22 | 0.0304
CN(C)c1ccc(-c2ccc3ncc4c(c3n2)n(C2CCN(C(=O)CO)CC2)c(=O)n4C)cn1 [Compound 216, 8-[6-(dimethylamino)pyridin-3-yl]-1-(1-glycoloylpiperidin-4-yl)-3-methyl-1,3-dihydro-2H-imidazo[4,5-c][1,5]naphthyridin-2-one] | 0.505 | 2.29 | 0.00623
Cn1c(=O)n(C2CCNCC2)c2c3nc(-c4cnn(CCO)c4)ccc3ncc21 [Compound 226, 8-[1-(2-hydroxyethyl)-1H-pyrazol-4-yl]-3-methyl-1-piperidin-4-yl-1,3-dihydro-2H-imidazo[4,5-c][1,5]naphthyridin-2-one] | 52.1 | 105 | 3.21
Cn1c(=O)n(C2CCNCC2)c2c3nc(-c4cnc(N)nc4)ccc3ncc21 [Compound 227, 8-(2-aminopyrimidin-5-yl)-3-methyl-1-piperidin-4-yl-1,3-dihydro-2H-imidazo[4,5-c][1,5]naphthyridin-2-one] | 1.61 | 3.61 | 0.137
Cn1c(=O)n([C@H]2CC[C@H](O)CC2)c2c3nc(-c4cnc(N)nc4)ccc3ncc21 [Compound 229, 8-(2-aminopyrimidin-5-yl)-1-(trans-4-hydroxycyclohexyl)-3-methyl-1,3-dihydro-2H-imidazo[4,5-c][1,5]naphthyridin-2-one] | 0.273 | 0.33 | 0.00336

— patent publication US8791131B2, “Imidazo[1,5]naphthyridine compounds, their pharmaceutical use and compositions” (Pfizer Inc., priority 2008, dated 2014)
